One assay deals with T1, FPRL1 (Homo sapiens, UniProt P25090).
T1 construct: expressed in transfected cells; host or cells: CHO-Gal6 (CHO cells with G alpha 16)
T1 sequence (P25090 1-351): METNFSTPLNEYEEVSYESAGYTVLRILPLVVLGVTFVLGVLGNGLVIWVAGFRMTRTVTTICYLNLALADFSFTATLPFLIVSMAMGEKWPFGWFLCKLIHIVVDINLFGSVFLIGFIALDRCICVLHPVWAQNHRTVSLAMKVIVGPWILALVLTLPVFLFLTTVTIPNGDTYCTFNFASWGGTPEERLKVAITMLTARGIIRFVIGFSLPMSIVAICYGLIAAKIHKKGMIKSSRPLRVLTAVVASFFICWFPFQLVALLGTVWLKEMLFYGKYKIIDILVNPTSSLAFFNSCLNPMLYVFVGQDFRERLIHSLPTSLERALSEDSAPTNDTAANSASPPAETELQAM
The experiment in a line: compound-induced calcium activity on FLIPR Tetra in CHO-Gal6 cells stably expressing FPRL1. The assay is classed as cell-based. The settings on record: for FPRL1 (rel. eff.): relative efficacy. The method, then:
(§1) CHO-Gal6 cells stably expressing FPRL1 were cultured in (F12, 10% FBS, 1% PSA, 400 μg/ml geneticin and 50 μg/ml hygromycin) and HEK-Gqi5 cells stable expressing FPR1 were cultured in (DMEM high glucose, 10% FBS, 1% PSA, 400 μg/ml geneticin and 50 μg/ml hygromycin). In general, the day before the experiment, 18,000 cells/well were plated in a 384-well clear bottom poly-d-lysine coated plate. The following day the screening compound-induced calcium activity was assayed on the FLIPR^Tetra. The drug plates were prepared in 384-well microplates using the EP3 and the MultiPROBE robotic liquid handling systems. Compounds were tested at concentrations ranging from 0.61 to 10,000 nM. Results are expressed as EC50 (nM) and efficacy values.

The next assay addresses T2, FPR1 (Homo sapiens, UniProt P21462).
T2 construct: expressed in transfected cells; host or cells: HEK-Gqi5 (HEK cells with chimeric G protein Gqi5)
T2 sequence (P21462 1-350): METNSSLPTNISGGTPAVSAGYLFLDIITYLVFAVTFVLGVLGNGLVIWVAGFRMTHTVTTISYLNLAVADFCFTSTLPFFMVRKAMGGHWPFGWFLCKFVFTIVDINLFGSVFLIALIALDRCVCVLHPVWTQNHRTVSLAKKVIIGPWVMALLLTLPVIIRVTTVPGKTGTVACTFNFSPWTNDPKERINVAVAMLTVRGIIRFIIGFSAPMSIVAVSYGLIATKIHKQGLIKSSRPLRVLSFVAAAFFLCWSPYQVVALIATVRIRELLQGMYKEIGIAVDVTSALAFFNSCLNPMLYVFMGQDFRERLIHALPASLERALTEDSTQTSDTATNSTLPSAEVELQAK
The experiment in a line: compound-induced calcium activity on FLIPR Tetra in HEK-Gqi5 cells stable expressing FPR1. The assay is classed as cell-based. The arrangement: FPR1 (rel. eff.): scale not given here. The note with it: for FPR1 (rel. eff.): relative efficacy. On the procedure:
as §1

Where [1] appears, read: calcium, FLIPR Tetra, tested 0.61 to 10,000 nM, read-out: FPRL1 EC50.
Where [2] appears, read: class symbol NA, read-out: FPR1 EC50 (NA = Not Active).
Where [3] appears, read: calcium, FLIPR Tetra, tested 0.61 to 10,000 nM, read-out: FPR1 EC50.

Molecules are shown by their SMILES. Read-outs that look alike come from different tables or passages of the source.

The EC50 is the concentration at which the effect is half-maximal. Consider `N#C[C@@H]1[C@H](C(=O)Nc2ccc(Br)cc2)[C@@H]2CC[C@H]1C21CC1` (racemic) [Compound 89, (+/−)-(1S,2R,3S,4R)—N-(4-Bromophenyl)-3-cyanospiro[bicyclo[2.2.1]heptane-7,1′-cyclopropane]-2-carboxamide], for which the EC50 on FPRL1 (setting [1]) was 1090 nM; on FPR1 (setting [2]) it was more than 10000 nM. The “FPRL1 (rel. eff.)” value on FPRL1 (calcium, FLIPR Tetra) came to 0.82.

In the case of `O=C(Nc1ccc(Br)cc1)C1C(CO)C2C=CC1C21CC1` (racemic) [Compound 58, (+/−)-(1R,4S,5R,6S)—N-(4-Bromophenyl)-6-(hydroxymethyl)spiro[bicyclo[2.2.1]-hept[2]ene-7,1′-cyclopropane]-5-carboxamide], the EC50 at FPRL1 (setting [1]) is 229 nM; on FPR1 (setting [2]), more than 10000 nM. The “FPRL1 (rel. eff.)” value at FPRL1 (calcium, FLIPR Tetra) is listed as 0.91.

For `CC(C)=C1[C@H]2C=C[C@@H]1[C@H](C(=O)O)[C@@H]2C(=O)Nc1ccc(Br)cc1` (racemic) [Compound 20, (+/−)-(1S,4R,5S,6R)-6-(4-Bromophenylcarbamoyl) [bicyclo[2.2.1]hept[2]ene-7-propan-2-ylidene]-5-carboxylic Acid], the values for the EC50 at FPRL1 (setting [1]) and at FPR1 (setting [2]) were 30 nM and more than 10000 nM, respectively. In addition, on FPRL1 (calcium, FLIPR Tetra), the “FPRL1 (rel. eff.)” value came to 0.96.

For the compound `CC(C)OC(=O)C1C(C(=O)Nc2ccc(I)cc2)C2C=CC1C21CC1` (racemic) [Compound 18, Iso-propyl(+/−)-(1S,4R,5S,6R)-6-(4-Iodophenylcarbamoyl)spiro[bicyclo[2.2.1]hept[2]ene-7,1′-cyclopropane]-5-carboxylate], the EC50 on FPRL1 (setting [1]) was 187 nM; at FPR1 (setting [2]), more than 10000 nM. Besides, the “FPRL1 (rel. eff.)” value on FPRL1 (calcium, FLIPR Tetra) is on record as 0.72.

As to `CC(C)=C1C2CCC1C(C(=O)Nc1ccc(Br)cc1)C2C(=O)O` (racemic) [Compound 24, (+/−)-(1S,2R,3S,4S)-3-(4-Bromophenylcarbamoyl)[bicyclo[2.2.1]heptane-7-propan-2-ylidene]-2-carboxylic Acid], the concentration for a half-maximal effect (EC50) at FPRL1 (setting [1]) is 164 nM; on FPR1 (setting [3]) it was 8300 nM. The “FPRL1 (rel. eff.)” value at FPRL1 (calcium, FLIPR Tetra) is given as 0.89.

In the case of `O=C(O)C1C(C(=O)Nc2ccc(O)cc2)C2C=CC1C21CC1` (racemic) [Compound 33, (+/−)-(1S,4R,5S,6R)-6-((4-Hydroxyphenyl)carbamoyl)spiro[bicyclo[2.2.1]hept[2]ene-7,1′-cyclopropane]-5-carboxylic Acid], the EC50 on FPRL1 (class symbol NA, read-out: FPRL1 EC50 (NA = Not Active)) was more than 10000 nM; on FPR1 (setting [2]), more than 10000 nM.

With `CC(C)c1ccc(NC(=O)C2C(C(=O)O)C3C=CC2C32CC2)cc1` (racemic) [Compound 6, (+/−)-(1S,4R,5S,6R)-6-(4-Isopropylphenylcarbamoyl)spiro[bicyclo[2.2.1]hept[2]ene-7,1′-cyclopropane]-5-carboxylic Acid], the “FPRL1 (rel. eff.)” value on FPRL1 (calcium, FLIPR Tetra) was “ND (0.39)”. Further, on FPR1 (setting [2]), the 50% effective concentration (EC50) was more than 10000 nM.

`O=C(O)[C@@H]1[C@H](C(=O)Nc2ccc3c(c2)oc2ccccc23)[C@@H]2CC[C@H]1C21CC1` (racemic) [Compound 31, (+/−)-(1S,4R,5S,6R)-6-(dibenzo[b,d]furan-3-ylcarbamoyl)spiro[bicyclo[2.2.1]-heptane-7,1′-cyclopropane]-5-carboxylic acid]: the results for the concentration for a half-maximal effect (EC50) at FPRL1 (setting [1]) and at FPR1 (setting [2]) were 2260 nM and more than 10000 nM, respectively. Moreover, at FPRL1 (calcium, FLIPR Tetra), the “FPRL1 (rel. eff.)” value worked out at 0.9.

Turning to `O=C(O)[C@@H]1[C@H](C(=O)Nc2ccc(I)cc2)[C@@H]2CC[C@H]1C21CC1` (racemic) [Compound 9, (+/−)-(1R,2S,3R,4S)-3-(4-Iodophenylcarbamoyl)spiro[bicyclo[2.2.1]heptane-7,1′-cyclopropane]-2-carboxylic Acid], the EC50 on FPRL1 (setting [1]) stood at 1 nM; at FPR1 (setting [3]), 269 nM. Also, the “FPRL1 (rel. eff.)” value on FPRL1 (calcium, FLIPR Tetra) came out at 0.80. Further, the “FPR1 (rel. eff.)” value at FPR1 (calcium, FLIPR Tetra) is recorded as 0.73.

As to `CC(C)=C1[C@H]2C=C[C@@H]1[C@@H](C(=O)O)[C@H]2C(=O)Nc1ccc(Br)cc1` (racemic) [Compound 21, (+/−)-(1S,4R,5R,6S)-6-(4-Bromophenylcarbamoyl)[bicyclo[2.2.1]hept[2]ene-7-propan-2-ylidene]-5-carboxylic Acid], the concentration for a half-maximal effect (EC50) on FPRL1 (setting [1]) amounted to 461 nM. Besides, the “FPRL1 (rel. eff.)” value at FPRL1 (calcium, FLIPR Tetra) is reported as 0.77. The “FPR1 (rel. eff.)” value at FPR1 (calcium, FLIPR Tetra) was found to be 50.

In the case of `NC(=O)[C@@H]1[C@H](C(=O)Nc2ccc(I)cc2)[C@@H]2CC[C@H]1C21CC1` (racemic) [Compound 51, (+/−)-(1S,2R,3S,4R)—N2-(4-Iodophenyl)spiro[bicyclo[2.2.1]heptane-7,1′-cyclopropane]-2,3-dicarboxamide], the EC50 at FPRL1 (setting [1]) is less than 4.8 nM; at FPR1 (setting [2]), more than 10000 nM. Moreover, at FPRL1 (calcium, FLIPR Tetra), the “FPRL1 (rel. eff.)” value came out at 0.87.

In the case of `CSc1ccc(NC(=O)[C@H]2[C@@H](C(N)=O)[C@H]3CC[C@@H]2C32CC2)cc1` (racemic) [Compound 67, (+/−)-(1S,2R,3S,4R)—N^2-(4-(Methylthio)phenyl)-spiro[bicyclo[2.2.1]heptane-7,1′-cyclopropane]-2,3-dicarboxamide], the figures for the EC50 at FPRL1 (setting [1]) and at FPR1 (setting [2]) were 15.7 nM and more than 10000 nM, respectively. Further, the “FPRL1 (rel. eff.)” value on FPRL1 (calcium, FLIPR Tetra) stood at 0.91.

Consider `O=C(O)C1C(C(=O)Nc2ccc(SC(F)(F)F)cc2)C2C=CC1C21CC1` (racemic) [Compound 4, (+/−)-(1S,4R,5S,6R)-6-(4-(Trifluoromethylthio)phenylcarbamoyl)Spiro[bicyclo[2.2.1]hept[2]ene-7,1′-cyclopropane]-5-carboxylic Acid], for which the EC50 on FPRL1 (setting [1]) is 709 nM; on FPR1 (setting [2]), more than 10000 nM. Further, the “FPRL1 (rel. eff.)” value on FPRL1 (calcium, FLIPR Tetra) turned out to be 0.84.

`CCc1ccc(NC(=O)C2C(C(=O)O)C3C=CC2C32CC2)cc1` (racemic) [Compound 36, (+/−)-(1S,4R,5S,6R)-6-((4-Ethylphenyl)carbamoyl)spiro[bicyclo[2.2.1]hept[2]ene-7,1′-cyclopropane]-5-carboxylic Acid]: the EC50 at FPRL1 (setting [1]) was 59 nM; on FPR1 (setting [2]), more than 10000 nM. Besides, on FPRL1 (calcium, FLIPR Tetra), the “FPRL1 (rel. eff.)” value amounted to 0.91.

For `C[S+]([O-])c1ccc(NC(=O)C2C(C(=O)O)C3CCC2C32CC2)cc1` (racemic) [Compound 44, (+/−)-(1R,2S,3R,4S)-3-((4-(Methylsulfinyl)phenyl)carbamoyl)spiro[bicyclo-[2.2.1]heptane-7,1′-cyclopropane]-2-carboxylic Acid], the values for the half-maximal effective concentration (EC50) on FPRL1 (setting [1]) and at FPR1 (setting [2]) were 475 nM and more than 10000 nM, respectively. In addition, on FPRL1 (calcium, FLIPR Tetra), the “FPRL1 (rel. eff.)” value was determined as 0.95.

As for `CC(C)OC(=O)[C@@H]1[C@H](C(=O)Nc2ccc(Br)cc2)[C@@H]2CC[C@H]1C21CC1` (racemic) [Compound 86, (+/−)-(1S,2R,3S,4R)-Isopropyl 2-((4-bromophenyl)carbamoyl)spiro[bicyclo[2.2.1]heptane-7,1′-cyclopropane]-3-carboxylate], the values for the concentration giving a half-maximal response (EC50) at FPRL1 (setting [1]) and at FPR1 (setting [2]) were 2110 nM and more than 10000 nM, respectively. The “FPRL1 (rel. eff.)” value at FPRL1 (calcium, FLIPR Tetra) is recorded as 1.0.

As to `NC(=O)C1C(C(=O)Nc2ccc(I)cc2)C2C=CC1C21CC1` (racemic) [Compound 69, (+/−)-(1R,4S,5R,6S)—N^5-(4-Iodophenyl)spiro[bicyclo[2.2.1]hept[2]ene-7,1′-cyclopropane]-5,6-dicarboxamide], the 50% effective concentration (EC50) was 7.7 nM on FPRL1 (setting [1]) and more than 10000 nM on FPR1 (setting [2]). Besides, on FPRL1 (calcium, FLIPR Tetra), the “FPRL1 (rel. eff.)” value was 0.87.

As for `CCOC(=O)C1C(C(=O)Nc2ccc(I)cc2)C2C=CC1C21CC1` (racemic) [Compound 17, Ethyl(+/−)-(1S,4R,5S,6R)-6-(4-Iodophenylcarbamoyl)spiro[bicyclo[2.2.1]hept[2]ene-7,1′-cyclopropane]-5-carboxylate], the EC50 was 243 nM at FPRL1 (setting [1]) and more than 10000 nM on FPR1 (setting [2]). For the same compound, at FPRL1 (calcium, FLIPR Tetra), the “FPRL1 (rel. eff.)” value turned out to be 0.76.

With `CS(=O)(=O)c1ccc(NC(=O)[C@H]2[C@@H](C(=O)O)[C@H]3CC[C@@H]2C32CC2)cc1` [Compound 45, (1R,2S,3R,4S)-3-((4-(Methylsulfonyl)phenyl)carbamoyl)spiro[bicyclo[2.2.1]heptane-7,1′-cyclopropane]-2-carboxylic Acid], the values for the EC50 on FPRL1 (setting [1]) and on FPR1 (setting [2]) were 598 nM and more than 10000 nM, respectively. Also, at FPRL1 (calcium, FLIPR Tetra), the “FPRL1 (rel. eff.)” value was found to be 0.86.

In the case of `N=C[C@@H]1[C@H](C(=O)Nc2ccccc2)[C@@H]2CC[C@H]1C21CC1` (racemic) [Compound 93, (+/−)-(1S,2R,3S,4R)-3-(Iminomethyl)-N-phenylspiro[bicyclo[2.2.1]heptane-7,1′-cyclopropane]-2-carboxamide], the results for the concentration for a half-maximal effect (EC50) on FPRL1 (setting [1]) and on FPR1 (setting [2]) were 5810 nM and more than 10000 nM, respectively. Also, the “FPRL1 (rel. eff.)” value at FPRL1 (calcium, FLIPR Tetra) was found to be 0.58.

These data come from US8618163B2, “Derivatives of cycloalkyl- and cycloalkenyl-1,2-dicarboxylic acid compounds having formyl peptide receptor like-1 (FPRL-1) agonist or antagonist activity” (Allergan, Inc., priority 2010, dated 2013).
